Measurements as given in patent US9056844B2, “4-substituted-3-benzyloxy-bicyclo[3.1.0]hexane compounds as mGluR 2/3 antagonists” (Eli Lilly and Company, priority 2010, dated 2015).

Tests used:
Type in all cases: cell-based
human mGlu5 receptor = molecular target: T1, human mGlu5 receptor (Homo sapiens, UniProt P41594); test: FLIPR calcium assay for mGlu receptor selectivity, mGlu5 antagonist mode; conditions: inhibition of EC90 glutamate response, read-out: mGlu5 % inhib. @12.5 μM
T1 construct: expressed in transfected cells; host or cells: AV12 cells, co-expressing rat EAAT1
Description: (§1) FLIPR and cAMP Assays for mGlu Receptor Selectivity
(§2) The relative antagonist potencies of the compounds of the invention for the other human mGlu receptors can be assessed with either a cAMP assay or fluorometric calcium response assay (see for example Fell et al., JPET (in press)). Briefly, individual AV12 cell lines containing the rat EAAT1 glutamate transporter and stably expressing the human mGlu1, 2, 3, 4, 5, 6, & 8 receptors are used for these studies. The mGlu1 and 5 receptors are […], so they naturally signal through phospholipase C, producing a calcium flux response which can be used to measure receptor activation using a Fluorometric Imaging Plate Reader (FLIPR, Molecular Devices). The cell lines expressing the mGlu2, 3, 4, and 8 receptor are designed to express the Gα15 subunit so that these Gi-coupled receptors will generate a calcium flux response similar to the mGlu1 and 5 receptor expressing cell lines. The mGlu6 receptor is tested in a cAMP format using methods analogous to those developed for mGlu2 and mGlu3 above. These cell lines are maintained as previously described except that amounts of L-glutamine and selection agents (geneticin, hygromycin B, zeocin, and blasticidin) may vary depending on the cell line. Confluent cultures are passaged biweekly.
(§3) Intracellular calcium levels are monitored using FLIPR before and after the addition of test compounds and Fluo-3 AM (Invitrogen) or Calcium 4 (Molecular Devices) dye, depending on the cell line. Cells are plated 24 hours prior to assay in a variable concentration of glutamine and a variable density of cells per well, depending on the cell line. The medium is removed and the cells are incubated with 8 μM of dye (50 μl per well) for 90 or 120 minutes (depending on cell line) at 25° C. A single-addition FLIPR assay generating an 11-point concentration response curve for the agonist glutamate is conducted prior to each experiment to confirm the appropriate sensitivity of the cells. The results are analyzed using GraphPad Prism v4.03 to calculate the concentrations of glutamate needed to induce the EC90 (antagonist assay) and EC10 (potentiator assay) responses.
(§4) Compounds are tested at each mGlu receptor in a two-addition FLIPR assay using a 10-point concentration response profile starting at a final concentration of 25 μM for the agonist assay and 12.5 μM for the potentiator and antagonist assays. The first addition detects any agonist activity, and the second addition consists of 100 μl of select concentrations (depending on cell line) of glutamate in assay buffer generating an EC10 or EC90 glutamate response. Agonist effects are quantified as percent stimulation induced by compound alone relative to the maximal glutamate response. Antagonist effects are quantified by calculating the percent inhibition of the EC90 glutamate response caused by the compound. Potentiation effects are quantified as percent increase in the presence of an EC10 response in glutamate relative to the ECmax response. All data are calculated as relative IC50 or EC50 values using a four-parameter logistic curve fitting program (ActivityBase v5.3.1.22).

human mGlu6 receptor = molecular target: T2, human mGlu6 receptor (Homo sapiens, UniProt O15303); test: mGlu6 cAMP antagonist assay (reference agonist L-AP4); conditions: cAMP format
T2 construct: expressed in transfected cells; host or cells: AV12 cells, co-expressing rat EAAT1
Description: as §1, §2
Antagonist activity in mGlu6 cells is measured using cAMP in a method analogous to that described above for mGlu2 and mGlu3 activity, except that the reference agonist was L-AP4 (Tocris). […] Relative IC50 and EC50 values are calculated from the top-bottom range of the concentration response curve using a four-parameter logistic curve fitting program (ActivityBase v5.3.1.22).

human mGlu1 receptor = molecular target: T3, human mGlu1 receptor (Homo sapiens, UniProt Q13255); test: FLIPR calcium assay for mGlu receptor selectivity, mGlu1 antagonist mode; conditions: inhibition of EC90 glutamate response, read-out: mGlu1 % inhib. @12.5 μM
T3 construct: expressed in transfected cells; host or cells: AV12 cells, co-expressing rat EAAT1
Description: as §1, §2, §3, §4

human mGlu3 receptors = molecular target: T4, human mGlu3 receptors (Homo sapiens, UniProt Q14832); test: mGlu3 receptor cAMP antagonist assay; conditions: reversal of DCG IV (EC90) inhibition of forskolin-stimulated cAMP; AV12 cells
T4 construct: expressed in transfected cells; host or cells: AV12 cells, co-expressing rat EAAT1
Method: mGlu2 and mGlu3 Receptor cAMP Antagonist Assays
Antagonist activity is assayed in recombinant AV12 cells stably expressing human mGlu2 or mGlu3 receptors and the rat glutamate transporter EAAT1 (Excitatory Amino Acid Transporter 1). The cell lines are maintained by culturing in DMEM with high glucose and pyridoxine hydrochloride supplemented with 5% dialyzed fetal bovine serum (FBS), 1 mM sodium pyruvate, 1 mM HEPES and 1 mM L-glutamine; geneticin and hygromycin B are used as selection antibiotics. Confluent cultures are grown at 37° C. in an atmosphere containing 6.5% CO2, and passaged biweekly. Cells are harvested using 0.25% trypsin, suspended in freeze media (FBS with 10% DMSO) at 10^7 cells/ml, and aliquots are stored in liquid nitrogen. Twenty-four hours before the assay, cells are plated at a density of 8,000-10,000 cells per well in a tissue culture treated, 96-well, half-area black plates (Costar 3875) in 50 μl of DMEM with high glucose and pyridoxine hydrochloride supplemented with 5% dialyzed FBS, 1 mM sodium pyruvate, 1 mM HEPES, 100 μg/ml ampicillin, and 250 μM (mGlu2) or 125 μM (mGlu3) of L-glutamine.
Reversal of the inhibition of forskolin-stimulated cAMP production by test compounds is measured using homogeneous time resolved fluorescence technology (HTRF; Cisbio cat #62AM4PEB). The medium is removed and the cells are incubated with 100 μl cAMP stimulation buffer (STIM) for 30 minutes at 37° C. (STIM buffer contains 500 ml HBSS, 1000 ml DPBS, 0.034% BSA, 1.67 mM HEPES and 500 μM IBMX (Sigma 15879).) Compounds are tested in 10-point concentration response curves using 3× serial dilution followed by further 40-fold dilution into STIM buffer. DCG IV (Tocris 0975) serves as the reference agonist. The final reaction mixture contains 1 μM (for mGlu2) or 3 μM (for mGlu3) of forskolin (Sigma F6886), DCG IV at its EC90, and up to 25 μM of test compound. Cells are incubated at 37° C. for 20 minutes. To measure the cAMP levels, cAMP-d2 conjugate and anti cAMP-cryptate conjugate in lysis buffer are incubated with the treated cells at room temperature for 1 hour (mGlu2) or 1.5 hour (mGlu3). The HTRF signal is detected using an EnVision plate reader (Perkin-Elmer) to calculate the ratio of fluorescence at […]. The raw data are converted to cAMP amount (pmole/well) using a cAMP standard curve generated for each experiment. Relative IC50 values are calculated from the top-bottom range of the concentration response curve using a four-parameter logistic curve fitting program (ActivityBase v5.3.1.22).

T1 sequence (P41594 19-1212 limits assumed): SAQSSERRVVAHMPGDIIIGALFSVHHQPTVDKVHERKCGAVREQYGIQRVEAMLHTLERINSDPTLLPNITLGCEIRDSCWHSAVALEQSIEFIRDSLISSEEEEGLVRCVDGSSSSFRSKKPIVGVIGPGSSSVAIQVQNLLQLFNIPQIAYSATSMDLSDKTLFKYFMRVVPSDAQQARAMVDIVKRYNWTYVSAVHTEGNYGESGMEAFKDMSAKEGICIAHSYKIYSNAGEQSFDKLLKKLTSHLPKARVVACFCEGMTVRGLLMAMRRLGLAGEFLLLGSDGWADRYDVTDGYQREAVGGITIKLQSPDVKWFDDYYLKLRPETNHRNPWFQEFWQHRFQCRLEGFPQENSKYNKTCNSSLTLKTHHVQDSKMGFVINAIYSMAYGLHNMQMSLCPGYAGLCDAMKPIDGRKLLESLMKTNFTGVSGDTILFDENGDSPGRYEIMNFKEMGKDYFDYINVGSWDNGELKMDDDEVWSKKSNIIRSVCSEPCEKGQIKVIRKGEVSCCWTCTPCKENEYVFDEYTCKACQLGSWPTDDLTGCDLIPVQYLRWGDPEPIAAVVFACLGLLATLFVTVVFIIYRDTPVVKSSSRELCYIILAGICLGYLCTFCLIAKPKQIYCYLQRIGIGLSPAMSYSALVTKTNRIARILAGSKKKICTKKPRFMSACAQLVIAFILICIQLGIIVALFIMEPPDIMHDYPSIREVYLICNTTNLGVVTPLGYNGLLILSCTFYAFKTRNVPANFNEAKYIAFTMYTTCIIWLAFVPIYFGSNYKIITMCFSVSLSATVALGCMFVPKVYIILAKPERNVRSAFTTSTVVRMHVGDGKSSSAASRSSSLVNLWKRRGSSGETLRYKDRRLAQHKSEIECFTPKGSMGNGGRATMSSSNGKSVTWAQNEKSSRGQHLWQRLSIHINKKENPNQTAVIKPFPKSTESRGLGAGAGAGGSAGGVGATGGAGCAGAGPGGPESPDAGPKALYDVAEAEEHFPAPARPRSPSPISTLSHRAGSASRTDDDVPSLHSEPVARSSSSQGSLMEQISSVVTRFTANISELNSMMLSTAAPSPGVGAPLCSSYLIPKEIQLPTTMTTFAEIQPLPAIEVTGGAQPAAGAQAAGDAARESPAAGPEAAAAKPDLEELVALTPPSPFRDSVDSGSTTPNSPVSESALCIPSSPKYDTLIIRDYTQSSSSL
T3 sequence (Q13255 19-1194): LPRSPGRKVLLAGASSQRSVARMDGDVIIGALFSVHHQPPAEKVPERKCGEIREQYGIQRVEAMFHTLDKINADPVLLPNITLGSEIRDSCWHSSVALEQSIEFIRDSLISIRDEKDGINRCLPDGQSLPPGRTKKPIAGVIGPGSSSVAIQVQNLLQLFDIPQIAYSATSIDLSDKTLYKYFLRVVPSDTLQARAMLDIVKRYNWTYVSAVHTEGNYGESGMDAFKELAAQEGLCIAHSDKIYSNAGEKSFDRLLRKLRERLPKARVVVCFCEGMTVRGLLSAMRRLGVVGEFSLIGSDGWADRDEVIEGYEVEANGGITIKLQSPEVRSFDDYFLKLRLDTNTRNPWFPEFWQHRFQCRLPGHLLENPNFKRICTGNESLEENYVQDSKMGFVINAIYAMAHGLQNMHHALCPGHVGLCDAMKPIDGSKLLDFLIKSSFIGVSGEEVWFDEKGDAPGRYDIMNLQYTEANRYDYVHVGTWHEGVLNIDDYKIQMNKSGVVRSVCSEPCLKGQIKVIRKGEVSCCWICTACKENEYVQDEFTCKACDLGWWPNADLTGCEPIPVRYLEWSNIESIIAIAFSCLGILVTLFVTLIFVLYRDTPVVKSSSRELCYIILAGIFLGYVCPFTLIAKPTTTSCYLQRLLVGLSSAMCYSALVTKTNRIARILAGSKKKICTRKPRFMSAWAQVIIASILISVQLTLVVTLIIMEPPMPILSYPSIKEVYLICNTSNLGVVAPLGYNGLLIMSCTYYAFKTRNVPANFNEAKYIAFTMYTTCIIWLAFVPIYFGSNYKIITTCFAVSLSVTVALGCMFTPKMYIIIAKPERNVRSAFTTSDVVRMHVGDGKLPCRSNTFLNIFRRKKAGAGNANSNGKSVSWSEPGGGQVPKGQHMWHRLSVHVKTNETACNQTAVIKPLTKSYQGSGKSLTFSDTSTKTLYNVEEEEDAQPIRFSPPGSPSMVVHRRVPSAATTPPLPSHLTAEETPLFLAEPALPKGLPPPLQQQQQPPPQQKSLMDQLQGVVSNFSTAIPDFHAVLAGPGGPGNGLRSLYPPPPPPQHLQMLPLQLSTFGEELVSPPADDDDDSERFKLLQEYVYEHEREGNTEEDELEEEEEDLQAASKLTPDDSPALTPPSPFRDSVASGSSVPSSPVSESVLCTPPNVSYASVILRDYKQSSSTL
T2 sequence (O15303 25-877): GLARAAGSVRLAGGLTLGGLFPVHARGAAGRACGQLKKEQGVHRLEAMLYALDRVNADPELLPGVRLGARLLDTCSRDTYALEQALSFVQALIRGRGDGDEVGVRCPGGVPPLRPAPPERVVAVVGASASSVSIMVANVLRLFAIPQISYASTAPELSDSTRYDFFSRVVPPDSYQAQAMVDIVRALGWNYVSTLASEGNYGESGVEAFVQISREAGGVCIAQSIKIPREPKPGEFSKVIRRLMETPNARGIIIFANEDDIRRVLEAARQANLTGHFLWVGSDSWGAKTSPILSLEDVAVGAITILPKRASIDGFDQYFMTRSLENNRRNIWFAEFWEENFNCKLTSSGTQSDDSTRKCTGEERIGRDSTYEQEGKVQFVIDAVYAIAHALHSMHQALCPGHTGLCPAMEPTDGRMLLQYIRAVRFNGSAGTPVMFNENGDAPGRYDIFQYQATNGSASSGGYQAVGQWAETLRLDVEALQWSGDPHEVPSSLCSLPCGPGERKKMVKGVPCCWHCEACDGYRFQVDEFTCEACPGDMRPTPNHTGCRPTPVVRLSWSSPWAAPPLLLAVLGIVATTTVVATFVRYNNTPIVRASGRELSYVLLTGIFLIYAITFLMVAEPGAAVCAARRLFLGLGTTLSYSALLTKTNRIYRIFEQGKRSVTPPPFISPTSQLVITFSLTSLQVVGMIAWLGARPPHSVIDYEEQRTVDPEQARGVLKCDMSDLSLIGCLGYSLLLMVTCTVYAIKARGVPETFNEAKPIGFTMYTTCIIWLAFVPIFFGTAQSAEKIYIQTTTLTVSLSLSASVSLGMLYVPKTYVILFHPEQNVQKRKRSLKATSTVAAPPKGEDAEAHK
T4 sequence (Q14832 23-879): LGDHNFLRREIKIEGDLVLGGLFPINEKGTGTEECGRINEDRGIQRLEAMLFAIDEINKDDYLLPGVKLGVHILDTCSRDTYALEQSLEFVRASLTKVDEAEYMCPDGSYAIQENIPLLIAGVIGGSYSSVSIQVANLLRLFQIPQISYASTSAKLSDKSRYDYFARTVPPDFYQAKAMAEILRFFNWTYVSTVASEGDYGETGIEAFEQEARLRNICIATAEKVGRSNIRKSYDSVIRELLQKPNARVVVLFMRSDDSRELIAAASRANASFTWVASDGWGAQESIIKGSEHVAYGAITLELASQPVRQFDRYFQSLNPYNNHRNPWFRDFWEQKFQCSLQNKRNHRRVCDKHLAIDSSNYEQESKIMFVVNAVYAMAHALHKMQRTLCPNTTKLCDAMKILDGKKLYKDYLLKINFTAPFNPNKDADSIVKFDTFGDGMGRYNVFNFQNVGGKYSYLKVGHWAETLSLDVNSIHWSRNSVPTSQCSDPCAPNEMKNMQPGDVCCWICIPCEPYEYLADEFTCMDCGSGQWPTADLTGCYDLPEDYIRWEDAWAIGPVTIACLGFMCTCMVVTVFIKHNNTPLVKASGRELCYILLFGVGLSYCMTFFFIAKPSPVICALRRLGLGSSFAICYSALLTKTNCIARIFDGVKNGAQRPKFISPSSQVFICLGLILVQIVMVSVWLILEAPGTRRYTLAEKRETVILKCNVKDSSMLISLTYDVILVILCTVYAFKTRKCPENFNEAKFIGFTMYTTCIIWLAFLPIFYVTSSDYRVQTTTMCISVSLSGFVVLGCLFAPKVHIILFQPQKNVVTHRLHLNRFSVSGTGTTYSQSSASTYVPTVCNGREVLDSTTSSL

SMILES	inhibition at 12.5 µM (human mGlu5 receptor)	IC50 (human mGlu6 receptor)	inhibition at 12.5 µM (human mGlu1 receptor)	IC50 (human mGlu3 receptors)
Cl.N[C@]1(C(=O)O)[C@@H]2[C@@H](C(=O)O)[C@@H]2[C@H](NC(=O)CO)[C@H]1OCc1ccc(Cl)c(Cl)c1 [Example 9, (1S,2R,3R,4S,5R,6S)-2-Amino-3-[(3,4-dichlorobenzyl)oxy]-4-[(hydroxyacetyl)amino]bicyclo[3.1.0]hexane-2,6-dicarboxylic acid hydrochloride]	13.8%	2820 nM	5%	4.4 ± 0.5 nM
N[C@]1(C(=O)O)[C@@H]2[C@@H](C(=O)O)[C@@H]2[C@H](Sc2nc[nH]n2)[C@H]1OCc1ccc(Cl)c(Cl)c1 [Example 2, (1R,2R,3S,4S,5R,6R)-2-Amino-3-[(3,4-dichlorobenzyl)oxy]-4-(1H-1,2,4-triazol-3-ylsulfanyl)bicyclo[3.1.0]hexane-2,6-dicarboxylic acid]	-12.9%	1290 ± 162 nM	8.6%	7.8 nM
Cl.Cn1cnc(S[C@H]2[C@H]3[C@H](C(=O)O)[C@H]3[C@](N)(C(=O)O)[C@@H]2OCc2ccc(Cl)c(Cl)c2)n1 [Example 7, (1R,2R,3S,4S,5R,6R)-2-Amino-3-[(3,4-dichlorophenyl)methoxy]-4-[(1-methyl-1,2,4-triazol-3-yl)sulfanyl]bicyclo[3.1.0]hexane-2,6-dicarboxylic acid hydrochloride.]	22.7%	3690 nM	11.2%	34.8 ± 6.9 nM
N[C@]1(C(=O)O)[C@@H]2[C@@H](C(=O)O)[C@@H]2[C@H](O)[C@H]1OCc1ccc(Cl)c(Cl)c1 [Example 1, (1S,2R,3S,4S,5R,6R)-2-Amino-3-[(3,4-dichlorobenzyl)oxy]-4-hydroxybicyclo[3.1.0]hexane-2,6-dicarboxylic acid]	4.8%	3300 nM	-0.47%	27.2 ± 4.2 nM
CC(=O)N[C@H]1[C@H]2[C@H](C(=O)O)[C@H]2[C@](N)(C(=O)O)[C@@H]1OCc1ccc(Cl)c(Cl)c1 [Example 4, (1S,2R,3R,4S,5R,6S)-4-(Acetylamino)-2-amino-3-[(3,4-dichlorobenzyl)oxy]bicyclo[3.1.0]hexane-2,6-dicarboxylic acid]	22.6%	2640 ± 424 nM	-2%	8.2 ± 0.3 nM
